Measurements published in paper PMC8384680 (Journal of pharmaceutical and biomedical analysis, 2021).
Converted amounts (≈) assume the structure as drawn.

Key:
BRD4(2) = conditions: cell-free assays, ref [10], cited from earlier work
[1] = Stability of JQ1 in microdialysate; format: physicochemical
BRD4(1) = conditions: cell-free assays, ref [10], cited from earlier work
[2] = Stability of primary stock solution; format: physicochemical; conditions: stored at −80°C for 88-days, R.S.D ≤ 1.16%

In the case of `Cc1sc2c(c1C)C(c1ccc(Cl)cc1)=N[C@@H](CC(=O)OC(C)(C)C)c1nnc(C)n1-2` [JQ1], the “IC50 BRD4(2)” value (BRD4(2)) is given as 0.0151 µg/mL (≈ 0.033 µM), the IC50 (BRD4(2); read-out: IC50 BRD4(2)) is given as 0.033 µM and the “% Mean deviation” value ([1]; Bench-top 4C: 24h at 4°C, nominal 1.5 ng/mL) is given as 5.96%. The “% Mean deviation” value ([1]; Bench-top RT: 24h at room temperature, nominal 1.5 ng/mL) was 3.23%, the “% Mean deviation” value ([1]; Bench-top RT: 24h at room temperature, nominal 400 ng/mL) was 5.26% and the “% Mean deviation” value ([1]; Long-term: 21 days at −80°C, nominal 1.5 ng/mL) was 12.83%. The “% Mean deviation” value ([1]; Long-term: 21 days at −80°C, nominal 400 ng/mL) was 5.62%, the “% Mean deviation” value ([1]; Process: 48 h in auto sampler at 4°C, nominal 1.5 ng/mL) was 0.46% and the “% Mean deviation” value ([1]; Process: 48 h in auto sampler at 4°C, nominal 400 ng/mL) was 1.39%. For the same molecule, the “Autosampler (post-extractive) stability (in words)” value ([1]; extracted quality control samples, microdialysate, autosampler 48 h) was “stable”, the “Freeze-thaw stability (in words)” value ([1]; microdialysate, three freeze-thaw cycles) was “no-stability related issues” and the “Short-term stability (in words)” value ([1]; spiked microdialysate, 24 h at 4°C and room temperature) was “stable”. For the same molecule, the “Long-term stability (in words)” value ([1]; spiked microdialysate, −80°C for 21 days) was “confirmed”, the “% Mean deviation” value ([1]; three freeze-thaw cycles, nominal 1.5 ng/mL) was 11.77% and the “IC50 BRD4(1)” value (BRD4(1)) was 0.0352 µg/mL (≈ 0.077 µM). For the same molecule, the IC50 (BRD4(1); read-out: IC50 BRD4(1)) was 0.077 µM and the “Stability of primary stock solution (in words)” value [2] was “stable”.
